Where a name gives a salt, the structure may show the parent alone.
Biological target: T1, Human Polθ polymerase domain (aa1820-2590) (Homo sapiens, UniProt O75417)
T1 construct: Human Polθ polymerase domain (aa1820-2590) was expressed in E. coli; made in house; host or cells: E. coli
T1 sequence (O75417 1820-2590): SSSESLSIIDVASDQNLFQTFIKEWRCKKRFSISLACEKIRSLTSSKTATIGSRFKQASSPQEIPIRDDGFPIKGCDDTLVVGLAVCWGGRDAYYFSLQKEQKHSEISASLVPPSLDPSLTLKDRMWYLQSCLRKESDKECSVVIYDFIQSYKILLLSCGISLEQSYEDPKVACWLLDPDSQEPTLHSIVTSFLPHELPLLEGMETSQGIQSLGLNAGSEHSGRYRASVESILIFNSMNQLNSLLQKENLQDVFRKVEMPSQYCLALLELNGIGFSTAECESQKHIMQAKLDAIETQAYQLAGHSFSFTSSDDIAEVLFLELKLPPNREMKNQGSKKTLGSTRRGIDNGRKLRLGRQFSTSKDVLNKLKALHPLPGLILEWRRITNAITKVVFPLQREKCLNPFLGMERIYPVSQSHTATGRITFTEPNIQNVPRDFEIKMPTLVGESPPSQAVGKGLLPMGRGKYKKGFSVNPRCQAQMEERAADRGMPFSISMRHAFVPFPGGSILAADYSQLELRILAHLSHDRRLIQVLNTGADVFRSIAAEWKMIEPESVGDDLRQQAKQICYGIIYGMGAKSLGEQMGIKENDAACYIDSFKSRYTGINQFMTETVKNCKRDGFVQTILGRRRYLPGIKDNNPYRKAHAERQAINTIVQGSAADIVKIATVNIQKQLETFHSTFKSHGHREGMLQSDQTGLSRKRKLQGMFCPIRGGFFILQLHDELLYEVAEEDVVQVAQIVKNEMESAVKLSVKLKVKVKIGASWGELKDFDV
Experiment: Polθ Polymerase Domain Kinact/KI Assay (PicoGreen)
Type: biochemical
Details: 0.8 nM Polθ, 100 nM DNA substrate, kobs vs [I] fit for 2-step covalent inhibitor
Summary of the method: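 Covalent inhibitors were tested against E. coli-expressed enzyme (0.8 nM final) with 100 nM annealed DNA substrate and […] in Tris pH 7.5 buffer, 1% DMSO. Reactions were EDTA-quenched over a 0–60 min time course and product DNA detected by PicoGreen fluorescence.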

| Compound | Kinact/Kl [M⁻¹ s⁻¹] |
| --- | --- |
| C=CC(=O)N1CC(N2CCN(CCN3C[C@H]4CC(=O)N(c5cc(C(F)(F)F)cc(C)n5)[C@@H]4C(=O)N(C)c4cc(F)ccc43)CC2)C1 [Example 15, (3aR,11aS)-5-(2-(4-(1-acryloylazetidin-3-yl)piperazin-1-yl)ethyl)-8-fluoro-10-methyl-1-(6-methyl-4-(trifluoromethyl)pyridin-2-yl)-1,3a,4,5,10,11a-hexahydro-2H-benzo[b]pyrrolo[2,3-f][1,4]diazocine-2,11(3H)-dione] | 73000 |
| C=CC(=O)N1CC(N2CCN(CCN3C[C@H]4CC(=O)N(c5cc(C(F)(F)F)cc(C)n5)[C@@H]4C(=O)N(C)c4cc(F)cc(F)c43)CC2)C1 [Example 16, (3aR,11aS)-5-(2-(4-(1-acryloylazetidin-3-yl)piperazin-1-yl)ethyl)-6,8-difluoro-10-methyl-1-(6-methyl-4-(trifluoromethyl)pyridin-2-yl)-1,3a,4,5,10,11a-hexahydro-2H-benzo[b]pyrrolo[2,3-f][1,4]diazocine-2,11(3H)-dione] | 130000 |
| C=CC(=O)N1CC(N2CCN(CCN3C[C@H]4CC(=O)N(c5cc(C(F)(F)F)cc(C)n5)[C@@H]4C(=O)N(C)c4cc(F)cc(Cl)c43)CC2)C1 [Example 17, (3aR,11aS)-5-(2-(4-(1-acryloylazetidin-3-yl)piperazin-1-yl)ethyl)-6-chloro-8-fluoro-10-methyl-1-(6-methyl-4-(trifluoromethyl)pyridin-2-yl)-1,3a,4,5,10,11a-hexahydro-2H-benzo[b]pyrrolo[2,3-f][1,4]diazocine-2,11(3H)-dione] | 1.19e+06 |
| C=CC(=O)N1CC(N2CCN(CCN3C[C@H]4CC(=O)N(c5cc(C(F)(F)F)cc(C)n5)[C@@H]4C(=O)N(C)c4cc(F)cc(C)c43)CC2)C1 [Example 18, (3aR,11aS)-5-(2-(4-(1-acryloylazetidin-3-yl)piperazin-1-yl)ethyl)-8-fluoro-6,10-dimethyl-1-(6-methyl-4-(trifluoromethyl)pyridin-2-yl)-1,3a,4,5,10,11a-hexahydro-2H-benzo[b]pyrrolo[2,3-f][1,4]diazocine-2,11(3H)-dione] | 1.18e+06 |
| C=CC(=O)N1CC(N2CCN(CCN3C[C@H]4CC(=O)N(c5cc(C(F)(F)F)cc(C)n5)[C@@H]4C(=O)N(C)c4cc(F)cc(C5CC5)c43)CC2)C1 [Example 19, (3aR,11aS)-5-(2-(4-(1-acryloylazetidin-3-yl)piperazin-1-yl)ethyl)-6-cyclopropyl-8-fluoro-10-methyl-1-(6-methyl-4-(trifluoromethyl)pyridin-2-yl)-1,3a,4,5,10,11a-hexahydro-2H-benzo[b]pyrrolo[2,3-f][1,4]diazocine-2,11(3H)-dione] | 350000 |
| C=CC(=O)N1CC(N2CCN(CCN3C[C@H]4CC(=O)N(c5cc(C(F)(F)F)cc(C)n5)[C@@H]4C(=O)N(C)c4c(F)c(F)cc(Cl)c43)CC2)C1 [Example 20, (3aR,11aS)-5-(2-(4-(1-acryloylazetidin-3-yl)piperazin-1-yl)ethyl)-6-chloro-8,9-difluoro-10-methyl-1-(6-methyl-4-(trifluoromethyl)pyridin-2-yl)-1,3a,4,5,10,11a-hexahydro-2H-benzo[b]pyrrolo[2,3-f][1,4]diazocine-2,11(3H)-dione] | 1.12e+06 |
| Cc1cc(C(F)(F)F)cc(N2C(=O)C[C@@H]3CN(CCN4CCOC5(C4)CN(C(=O)/C=C/CN(C)C)C5)c4c(F)cccc4N(C)C(=O)[C@H]32)n1 [Example 27, (3aR,11aS)-5-(2-(2-((E)-4-(dimethylamino)but-2-enoyl)-5-oxa-2,8-diazaspiro[3.5]nonan-8-yl)ethyl)-6-fluoro-10-methyl-1-(6-methyl-4-(trifluoromethyl)pyridin-2-yl)-1,3a,4,5,10,11a-hexahydro-2H-benzo[b]pyrrolo[2,3-f][1,4]diazocine-2,11(3H)-dione Hydrochloride] | 1.05e+06 |
| C=CC(=O)N1CC(N2CCN(CCN3C[C@H]4CC(=O)N(c5cc(C(F)(F)F)cc(C)n5)[C@@H]4C(=O)N(C)c4cccc(F)c43)C[C@@H]2CF)C1 [Example 28, (3aR,11aS)-5-(2-((R)-4-(1-acryloylazetidin-3-yl)-3-(fluoromethyl)piperazin-1-yl)ethyl)-6-fluoro-10-methyl-1-(6-methyl-4-(trifluoromethyl)pyridin-2-yl)-1,3a,4,5,10,11a-hexahydro-2H-benzo[b]pyrrolo[2,3-f][1,4]diazocine-2,11(3H)-dione] | 350000 |

Second part, the compound after the results:

| Kinact/Kl [M⁻¹ s⁻¹] | Compound |
| --- | --- |
| 320000 | C=CC(=O)N1CC(N2CCN(CCN3C[C@H]4CC(=O)N(c5cc(C(F)(F)F)cc(C)n5)[C@@H]4C(=O)N(C)c4cccc(F)c43)C[C@H](F)C2)C1 [Example 29, (3aR,11aS)-5-(2-((S)-4-(1-acryloylazetidin-3-yl)-6-fluoro-1,4-diazepan-1-yl)ethyl)-6-fluoro-10-methyl-1-(6-methyl-4-(trifluoromethyl)pyridin-2-yl)-1,3a,4,5,10,11a-hexahydro-2H-benzo[b]pyrrolo[2,3-f][1,4]diazocine-2,11(3H)-dione] |
| 690000 | C=CC(=O)N1CC2(CN(CCN3C[C@H]4CC(=O)N(c5cc(C(F)(F)F)cc(C)n5)[C@@H]4C(=O)N(C)c4cccc(F)c43)CCN2)C1 [Example 30, (3aR,11aS)-5-(2-(2-acryloyl-2,5,8-triazaspiro[3.5]nonan-8-yl)ethyl)-6-fluoro-10-methyl-1-(6-methyl-4-(trifluoromethyl)pyridin-2-yl)-1,3a,4,5,10,11a-hexahydro-2H-benzo[b]pyrrolo[2,3-f][1,4]diazocine-2,11(3H)-dione] |
| 1.13e+06 | C=CC(=O)N1CC2(CN(CCN3C[C@H]4CC(=O)N(c5cc(C(F)(F)F)cc(C)n5)[C@@H]4C(=O)N(C)c4cccc(F)c43)C[C@@H](C)N2)C1 [Example 31, (3aR,11aS)-5-(2-((R)-2-acryloyl-6-methyl-2,5,8-triazaspiro[3.5]nonan-8-yl)ethyl)-6-fluoro-10-methyl-1-(6-methyl-4-(trifluoromethyl)pyridin-2-yl)-1,3a,4,5,10, 11a-hexahydro-2H-benzo [b]pyrrolo[2,3-f][1,4] diazocine-2,11(3H)-dione] |
| 420000 | C=CC(=O)N1CC2(CN(CCN3C[C@H]4CC(=O)N(c5cc(C(F)(F)F)cc(C)n5)[C@@H]4C(=O)N(C)c4cccc(F)c43)C[C@H](C)N2)C1 [Example 32, (3aR,11aS)-5-(2-((S)-2-acryloyl-6-methyl-2,5,8-triazaspiro[3.5]nonan-8-yl)ethyl)-6-fluoro-10-methyl-1-(6-methyl-4-(trifluoromethyl)pyridin-2-yl)-1,3a,4,5,10,11a-hexahydro-2H-benzo[b] pyrrolo[2,3-f][1,4] diazocine-2,11(3H)-dione] |
| 1.23e+06 | C=CC(=O)N1CC2(CN(CCN3C[C@H]4CC(=O)N(c5cc(C(F)(F)F)cc(C)n5)[C@@H]4C(=O)N(C)c4cccc(Cl)c43)CCN2)C1 [Example 33, (3aR,11aS)-5-(2-(2-acryloyl-2,5,8-triazaspiro[3.5]nonan-8-yl)ethyl)-6-chloro-10-methyl-1-(6-methyl-4-(trifluoromethyl)pyridin-2-yl)-1,3a,4,5, 10,11a-hexahydro-2H-benzo[b]pyrrolo [2,3-f][1,4]diazocine-2,11(3H)-dione] |

From patent US20250230165A1, “HETEROCYCLIC COMPOUNDS FOR USE IN THE TREATMENT OF CANCER” (ARTIOS PHARMA LIMITED, priority 2021, published 2025)
